Reference: US9169241B2, “Quinolinyloxyphenylsulfonamides” (Max-Planck-Gesellschaft Zur Forderung der Wissenschaften …, priority 2009, dated 2015)

Tests used:
[1] = biological target: T1, wild type AXL (wtAXL) receptor tyrosine kinase (Homo sapiens, UniProt P30530); experiment: NIH-3T3-AXL cellular kinase assay (pY-AXL-ELISA); type: cell-based; conditions: NIH-3T3-AXL (clone 22) cells, serum depleted, compounds 1 h; Table Ia
T1 construct: WtAXL cDNA was cloned into vector pLXSN(ESK) and transfected into Phoenix E packaging cells; expressed in transfected cells; host or cells: NIH3T3 N7 (mouse fibroblasts), retrovirally infected, clone 22
T1 sequence (P30530 26-894): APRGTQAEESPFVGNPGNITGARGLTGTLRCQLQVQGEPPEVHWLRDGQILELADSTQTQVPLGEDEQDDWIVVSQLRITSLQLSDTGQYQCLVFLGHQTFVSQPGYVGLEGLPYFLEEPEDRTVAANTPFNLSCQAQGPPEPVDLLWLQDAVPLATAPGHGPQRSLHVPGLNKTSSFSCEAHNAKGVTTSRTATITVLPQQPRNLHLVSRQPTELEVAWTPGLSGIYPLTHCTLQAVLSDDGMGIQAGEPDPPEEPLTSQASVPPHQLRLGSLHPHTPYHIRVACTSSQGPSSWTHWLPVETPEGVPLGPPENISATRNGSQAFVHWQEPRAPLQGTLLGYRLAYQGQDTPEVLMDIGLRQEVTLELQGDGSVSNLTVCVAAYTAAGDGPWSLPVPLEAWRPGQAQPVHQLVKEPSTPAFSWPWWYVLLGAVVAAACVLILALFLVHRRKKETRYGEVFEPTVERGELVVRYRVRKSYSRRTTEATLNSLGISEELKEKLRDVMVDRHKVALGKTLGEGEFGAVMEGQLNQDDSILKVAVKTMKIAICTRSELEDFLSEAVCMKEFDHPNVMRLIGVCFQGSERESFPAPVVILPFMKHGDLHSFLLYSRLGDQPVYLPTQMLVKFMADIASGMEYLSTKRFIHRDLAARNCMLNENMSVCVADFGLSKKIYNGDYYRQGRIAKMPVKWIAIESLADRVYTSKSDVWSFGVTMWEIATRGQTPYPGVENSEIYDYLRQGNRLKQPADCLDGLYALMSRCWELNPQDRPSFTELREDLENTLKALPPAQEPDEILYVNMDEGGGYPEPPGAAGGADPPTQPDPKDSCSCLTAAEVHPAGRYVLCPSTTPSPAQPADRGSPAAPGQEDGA
Protocol: WtAXL cDNA was cloned into vector pLXSN(ESK) and transfected into Phoenix E packaging cells. The viral supernatant was collected and used to infect target cells NIH3T3 N7. Monoclonal NIH3T3-AXL cell lines stably expressing wtAXL were generated by selecting retrovirally infected cells in medium containing puromycin (2 μg/ml) and subsequent clonal separation.
Serial dilutions of compounds were added, and the cells were further incubated for 1 h. Cells were washed with PBS and lysed on ice in 500 μl lysis buffer (50 mM HEPES (pH 7.5), 150 mM NaCl, 1 mM EGTA, 10% Glycerol, 1% Triton X-100, 100 mM NaF, 10 mM Na4P2O7.10H2O, 1 mM Na3VO4, 1 mM phenylmethylsulfonyl fluoride, and […]) for 15 min. The cell lysate were used for phosphotyrosine AXL enzyme-linked immunosorbant assay (pY-AXL-ELISA). […] Subsequently 96-well plates were blocked with PBS-0.05% Tween®20+10% FBS for 4 h at 37° C. Plates were washed 5 times with PBS-0.05% Tween®20 and 95 μl of lysate was transferred per well for incubation overnight at 4° C. Plates were washed 5 times with PBS-0.05% Tween®20 (Sigma, Steinheim, Germany). For detection of phosphorylated tyrosine we used homemade biotynilated 4G10-antibody (0.5 μg/ml) in PBS-0.05% Tween®20+10% FBS (100 μl/well) and incubated the 96-well plate for 2 h at room temperature. The anti-phosphotyrosine mouse monoclonal antibody 4G10 was biotynilated with Sulfo-NHS®-Biotin according to the suppliers protocol (Pierce, Rockford, Ill., USA) and purified by Mirco Bio-Spin 6 Chromatograpy Columns (BIO RAD Laboratories, Inc., Hercules, Calif., USA) using PBS as diluent. Plates were washed 5 times with PBS-0.05% Tween®20. For biding to biotin Alkaline Phosphatase Conjugated Strepavidin SA110 (Millipore, Billerica, Mass., USA) (1:4000) was used in PBS-0.05% Tween20+10% FBS (100 μl/well) and incubated for 30 min at room temperature. Plates were washed 5 times with PBS-0.05% Tween20. For fluorimetric detection of alkaline phosphatase AttoPhos Substrate Set (Roche diagnostics GmbH, Mannheim, Germany) was used (100 μl/well). The fluorimetric signal was quantified after 90 min at 430/560 nm wavelength using a TECAN Ultra Evolution plate reader (Tecan Deutschland GmbH, Crailsheim, Germany).

Hs578T [2] = experiment: Cell vitality assay (ATP assay, CellTiter-Glo); type: cell-based; conditions: Homo sapiens, Hs-578T; HS578T cell line, 72 h; Table Ib; read-out: IC50 ATP-Assay HS578T after 72 h
Procedure, shortened: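 ATP-based luminescence (CellTiter-Glo) after 72 h exposure of 1000 cells/well to seven compound concentrations from 0.195 to 12.5 μM. IC50 defined as concentration reducing ATP to 50% of DMSO control.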

Hs578T [3] = experiment: Wound healing migration assay; type: cell-based; conditions: Homo sapiens, Hs-578T; HS578T cell line; Table Ib
Procedure, shortened: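 Compound exposure at 12.5, 6.25 and 3.125 μM, with DMSO control, on scratch-wounded monolayers (150000 cells/24 well, overnight). Wound closure imaged by microscopy, fixed with crystal violet after 48 h or 72 h depending on cell line; IC50 is the concentration giving 50% wound size between t0 and t48/t72.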

Hs578T [4] = experiment: Matrigel outgrowth assay/branching assay; type: cell-based; conditions: Homo sapiens, Hs-578T; HS578T cell line; Table Ib; read-out: Total branching inhibition in Matrigel HS578T
Procedure, shortened: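 Cells (5000/well) were seeded onto polymerized 3 mg/ml Matrigel with compound at 3.125, 1.56 or 0.78 μM versus DMSO. Branching was imaged by inverted microscopy (5× objective) at 48, 72 and 96 h. Only concentrations giving total branching inhibition scored positive.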

Compound	IC50 [1] [µM]	IC50 (Hs578T [3]) [µM]	melting point [°C]	IC50 (Hs578T [2]) [µM]	IC50 (Hs578T [4]) [µM]
COc1cc2c(Oc3ccc(NS(=O)(=O)c4ccccc4OC(F)(F)F)cc3F)ccnc2cc1OCCCN1CCCCC1C (centres unmarked) [Example 153, N-(3-Fluoro-4-{6-methoxy-7-[3-(2-methyl-piperidin-1-yl)-propoxy]-quinolin-4-yloxy}-phenyl)-2-trifluoromethoxy-benzenesulfonamide]	< 0.5	≤ 12.5	90 to 92	≤ 12.5	10 to 25
COc1cc2c(Oc3ccc(NS(=O)(=O)c4cccs4)cc3F)ccnc2cc1OCCCN1CCCCC1C (centres unmarked) [Example 144, Thiophene-2-sulfonic acid (3-fluoro-4-{6-methoxy-7-[3-(2-methyl-piperidin-1-yl)-propoxy]-quinolin-4-yloxy}-phenyl)-amide]	< 0.5	≤ 12.5	117 to 119	≤ 12.5	10 to 25
COc1cc2c(Oc3ccc(NS(=O)(=O)c4ccco4)cc3F)ccnc2cc1OCCCN1CCCCC1C (centres unmarked) [Example 148, Furan-2-sulfonic acid (3-fluoro-4-{6-methoxy-7-[3-(2-methyl-piperidin-1-yl)-propoxy]-quinolin-4-yloxy}-phenyl)-amide]	0.5 to 3	12.5 to 50	118 to 119	≤ 12.5	10 to 25
COc1cc2c(Oc3ccc(NS(=O)(=O)c4ccccc4C(F)(F)F)cc3C)ccnc2cc1OCCCN1CCC(C)CC1 [Example 89, N-(4-{6-Methoxy-7-[3-(4-methyl-piperidin-1-yl)-propoxy]-quinolin-4-yloxy}-3-methyl-phenyl)-2-trifluoromethyl-benzenesulfonamide]	< 0.5	≤ 12.5	165 to 167	≤ 12.5	≤ 10
COc1cc2c(Oc3ccc(NS(=O)(=O)c4csc5ccccc45)cc3F)ccnc2cc1OCCCN1CCC(C)CC1 [Example 115, Benzo[b]thiophene-3-sulfonic acid (3-fluoro-4-{6-methoxy-7-[3-(4-methyl-piperidin-1-yl)-propoxy]-quinolin-4-loxy}-phenyl)-amide]	< 0.5	≤ 12.5	132 to 135	≤ 12.5	≤ 10
COc1cc2c(Oc3ccc(NS(=O)(=O)c4cc(F)ccc4F)cc3OC)ccnc2cc1OCCCN1CCC(C)CC1 [Example 207, 2,5-Difluoro-N-(3-methoxy-4-{6-methoxy-7-[3-(4-methyl-piperidin-1-yl)-propoxy]-quinolin-4-yloxy}-phenyl)-benzenesulfonamide]	0.5 to 3	≤ 12.5	170 to 172	≤ 12.5	10 to 25
COc1cc2c(Oc3ccc(NS(=O)(=O)c4csc5ccccc45)cc3F)ccnc2cc1OCCCN1CCCC(C)C1 (centres unmarked) [Example 67, Benzo[b]thiophene-3-sulfonic acid (3-fluoro-4-{6-methoxy-7-[3-(3-methyl-piperidin-1-yl)-propoxy]-quinolin-4-yloxy}-phenyl)-amide]	< 0.5	≤ 12.5	126 to 128	≤ 12.5	≤ 10

Continued, in another order:

IC50 [1] [µM]	IC50 (Hs578T [3]) [µM]	melting point [°C]	Compound	IC50 (Hs578T [2]) [µM]	IC50 (Hs578T [4]) [µM]
< 0.5	12.5 to 50	105 to 106	COc1cc2c(Oc3ccc(NS(=O)(=O)c4cccc(OC(F)F)c4)cc3F)ccnc2cc1OCCCN1CCCCC1 [Example 9, 3-Difluoromethoxy-N-{3-fluoro-4-[6-methoxy-7-(3-piperidin-1-yl-propoxy)-quinolin-4-yloxy]-phenyl}-benzenesulfonamide]	≤ 12.5	10 to 25
< 0.5	12.5 to 50	160 to 161	COc1cc2c(Oc3ccc(NS(=O)(=O)c4ccccc4)cc3F)ccnc2cc1OCCCN1CCCC(C)C1 (centres unmarked) [Example 36, N-(3-Fluoro-4-{6-methoxy-7-[3-(3-methyl-piperidin-1-yl)-propoxy]-quinolin-4-yloxy}-phenyl)-benzenesulfonamide]	≤ 12.5	10 to 25
< 0.5	≤ 12.5	132 to 134	COc1cc2c(Oc3ccc(NS(=O)(=O)c4c(F)cccc4F)cc3F)ccnc2cc1OCCCN1CCCCC1C (centres unmarked) [Example 152, 2,6-Difluoro-N-(3-fluoro-4-{6-methoxy-7-[3-(2-methyl-piperidin-1-yl)-propoxy]-quinolin-4-yloxy}-phenyl)-benzenesulfonamide]	≤ 12.5	≤ 10
0.5 to 3	≤ 12.5	120 to 122	COc1cc2c(Oc3ccc(NS(=O)(=O)c4csc5ccccc45)cc3F)ccnc2cc1OCCCN1CCCCC1C (centres unmarked) [Example 147, Benzo[b]thiophene-3-sulfonic acid (3-fluoro-4-{6-methoxy-7-[3-(2-methyl-piperidin-1-yl)-propoxy]-quinolin-4-yloxy}-phenyl)-amide]	≤ 12.5	≤ 10
< 0.5	≤ 12.5	102 to 104	COc1cc2c(Oc3ccc(NS(=O)(=O)c4cccc(OC(F)(F)F)c4)cc3F)ccnc2cc1OCCCN1CCCC(C)C1 (centres unmarked) [Example 46, N-(3-Fluoro-4-{6-methoxy-7-[3-(3-methyl-piperidin-1-yl)-propoxy]-quinolin-4-yloxy}-phenyl)-3-trifluoromethoxy-benzenesulfonamide]	≤ 12.5	≤ 10
< 0.5	≤ 12.5	150 to 152	COc1cc2c(Oc3ccc(NS(=O)(=O)c4cc(Cl)ccc4Cl)cc3F)ccnc2cc1OCCCN(C)C [Example 180, 2,5-Dichloro-N-{4-[7-(3-dimethylamino-propoxy)-6-methoxy-quinolin-4-yloxy]-3-fluoro-phenyl}-benzenesulfonamide]	≤ 12.5	≤ 10
